Values after ≈ are worked out from the molar mass of the structure shown.
Assays:
SF-295 [1] = test: Cytotoxicity against human SF295 cells after 1 hr compound washout; assay type: functional, cell-based; settings: SF-295, 1 h
CCRF-CEM = test: Cytotoxicity against human CCRF-CEM cells; assay type: functional; settings: for TGI: read-out: pTGI (converted)
MOLT-4 = test: Cytotoxicity against human MOLT4 cells; assay type: functional; settings: for TGI: read-out: pTGI (converted)
RPMI-8226 = test: Cytotoxicity against human RPMI8226 cells; assay type: functional; settings: for TGI: read-out: pTGI (converted)
NCI-H226 = test: Cytotoxicity against human NCI-H226 cells; assay type: functional; settings: for TGI: read-out: pTGI (converted)
HCC 2998 = test: Cytotoxicity against human HCC2998 cells; assay type: functional; settings: for TGI: read-out: pTGI (converted)
HCT-116 = test: Cytotoxicity against human HCT116 cells; assay type: functional; settings: for TGI: read-out: pTGI (converted)
HCT-15 = test: Cytotoxicity against human HCT15 cells; assay type: functional; settings: for TGI: read-out: pTGI (converted)
HT-29 = test: Cytotoxicity against human HT-29 cells; assay type: functional; settings: for TGI: read-out: pTGI (converted)
SW-620 = test: Cytotoxicity against human SW620 cells; assay type: functional; settings: for TGI: read-out: pTGI (converted)
SF-295 [2] = test: Cytotoxicity against human SF295 cells; assay type: functional
SF-539 = test: Cytotoxicity against human SF539 cells; assay type: functional; settings: for TGI: read-out: pTGI (converted)
SNB-19 = test: Cytotoxicity against human SNB19 cells; assay type: functional; settings: for TGI: read-out: pTGI (converted)
UACC-62 = test: Cytotoxicity against human UACC62 cells; assay type: functional; settings: for TGI: read-out: pTGI (converted)
ACHN = test: Cytotoxicity against human ACHN cells; assay type: functional; settings: for TGI: read-out: pTGI (converted)
CAKI-1 = test: Cytotoxicity against human Caki1 cells; assay type: functional; settings: for TGI: read-out: pTGI (converted)
DU-145 = test: Cytotoxicity against human DU145 cells; assay type: functional; settings: for CC50: read-out: pLC50 (the source's name) (converted); for TGI: read-out: pTGI (converted)
MCF7 = test: Cytotoxicity against human doxorubicin-resistant MCF7 cells; assay type: functional; settings: for CC50: read-out: pLC50 (the source's name) (converted); for TGI: read-out: pTGI (converted)
MDA-N = test: Cytotoxicity against human MDA-N cells; assay type: functional; settings: for CC50: read-out: pLC50 (the source's name) (converted); for TGI: read-out: pTGI (converted)

CC(C)=CCC/C(C)=C/Cc1c(O)cc(/C=C/c2cc(O)c3c(c2)C[C@@H]2C(C)(C)[C@H](O)[C@H](O)C[C@@]2(C)O3)cc1O [SCHWEINFURTHIN A]
IC50 (SF-295 [1]): 0.06 µg/mL (≈ 0.109 µM) | GI50 (CCRF-CEM): 0.01 µM | LC50 (CCRF-CEM): 74.1 µM | TGI (CCRF-CEM): 2.09 µM | GI50 (MOLT-4): 0.0151 µM | LC50 (MOLT-4): 57.5 µM | TGI (MOLT-4): 1.29 µM | GI50 (RPMI-8226): 0.01 µM | LC50 (RPMI-8226): 75.9 µM | TGI (RPMI-8226): 0.0209 µM | GI50 (NCI-H226): 4.47 µM | LC50 (NCI-H226): 70.8 µM | TGI (NCI-H226): 15.8 µM | GI50 (HCC 2998): 0.501 µM | LC50 (HCC 2998): 33.1 µM | TGI (HCC 2998): 9.77 µM | GI50 (HCT-116): 0.0525 µM | LC50 (HCT-116): 40.7 µM | TGI (HCT-116): 14.1 µM | GI50 (HCT-15): 1.82 µM | LC50 (HCT-15): 25.7 µM | TGI (HCT-15): 6.03 µM | GI50 (HT-29): 0.309 µM | LC50 (HT-29): 5.5 µM | TGI (HT-29): 2.4 µM | GI50 (SW-620): 0.257 µM | LC50 (SW-620): 44.7 µM | TGI (SW-620): 18.2 µM | LC50 (SF-295 [2]): 17 µM | GI50 (SF-295 [2]; read-out: GI50): 0.011 µM | TGI (SF-295 [2]; read-out: TGI): 0.052 µM | GI50 (SF-295 [2]; read-out: pGI50 (converted)): 0.011 µM | TGI (SF-295 [2]; read-out: pTGI (converted)): 0.0525 µM | GI50 (SF-539): 0.01 µM | LC50 (SF-539): 8.13 µM | TGI (SF-539): 1.7 µM | GI50 (SNB-19): 0.257 µM | LC50 (SNB-19): 49 µM | TGI (SNB-19): 20 µM | GI50 (UACC-62): 0.11 µM | LC50 (UACC-62): 6.31 µM | TGI (UACC-62): 1.82 µM | GI50 (ACHN): 2.09 µM | LC50 (ACHN): 39.8 µM | TGI (ACHN): 15.8 µM | GI50 (CAKI-1): 0.129 µM | LC50 (CAKI-1): 56.2 µM | TGI (CAKI-1): 19.1 µM | GI50 (DU-145): 1.2 µM | CC50 (DU-145): 53.7 µM | TGI (DU-145): 15.1 µM | GI50 (MCF7): 3.8 µM | CC50 (MCF7): 41.7 µM | TGI (MCF7): 12.9 µM | GI50 (MDA-N): 2.82 µM | CC50 (MDA-N): 61.7 µM | TGI (MDA-N): 25.7 µM

COc1cc(/C=C/c2cc(O)c(C/C=C(\C)CCC=C(C)C)c(O)c2)cc2c1O[C@]1(C)C[C@@H](O)[C@@H](O)C(C)(C)[C@H]1C2 [SCHWEINFURTHIN B]
IC50 (SF-295 [1]): 2.9 µg/mL (≈ 5.15 µM) | GI50 (CCRF-CEM): 0.229 µM | LC50 (CCRF-CEM): > 100 µM | TGI (CCRF-CEM): 6.31 µM | GI50 (MOLT-4): 0.0479 µM | LC50 (MOLT-4): 11 µM | TGI (MOLT-4): 5.25 µM | GI50 (RPMI-8226): 0.0151 µM | LC50 (RPMI-8226): 12 µM | TGI (RPMI-8226): 0.11 µM | GI50 (NCI-H226): 2.19 µM | LC50 (NCI-H226): 77.6 µM | TGI (NCI-H226): 14.1 µM | GI50 (HCC 2998): 3.63 µM | LC50 (HCC 2998): 34.7 µM | TGI (HCC 2998): 11 µM | GI50 (HCT-116): 0.575 µM | LC50 (HCT-116): 22.9 µM | TGI (HCT-116): 6.61 µM | GI50 (HCT-15): 1.91 µM | LC50 (HCT-15): 33.9 µM | TGI (HCT-15): 6.92 µM | GI50 (HT-29): 0.372 µM | LC50 (HT-29): 5.5 µM | TGI (HT-29): 2.09 µM | GI50 (SW-620): 0.676 µM | LC50 (SW-620): 17 µM | TGI (SW-620): 3.09 µM | LC50 (SF-295 [2]): 3.89 µM | GI50 (SF-295 [2]; read-out: pGI50 (converted)): 0.024 µM | TGI (SF-295 [2]; read-out: pTGI (converted)): 0.288 µM | GI50 (SF-539): 0.151 µM | LC50 (SF-539): 14.1 µM | TGI (SF-539): 2 µM | GI50 (SNB-19): 0.398 µM | LC50 (SNB-19): 40.7 µM | TGI (SNB-19): 15.8 µM | GI50 (UACC-62): 0.331 µM | LC50 (UACC-62): 10 µM | TGI (UACC-62): 2.29 µM | GI50 (ACHN): 4.27 µM | LC50 (ACHN): 43.7 µM | TGI (ACHN): 20 µM | GI50 (CAKI-1): 1.91 µM | LC50 (CAKI-1): 75.9 µM | TGI (CAKI-1): 28.8 µM | GI50 (DU-145): 3.39 µM | CC50 (DU-145): 50.1 µM | TGI (DU-145): 19.1 µM | GI50 (MCF7): 6.92 µM | CC50 (MCF7): 75.9 µM | TGI (MCF7): 30.2 µM | GI50 (MDA-N): 3.39 µM | CC50 (MDA-N): 28.8 µM | TGI (MDA-N): 15.1 µM
